# Results reported in paper PMC11833175, “Synthesis, characterization, antimicrobial, cytotoxic and carbonic anhydrase inhibition activities of multifunctional pyrazolo-1,2-benzothiazine acetamides” (Beilstein Journal of Organic Chemistry, 2025).
# Read-outs that look alike come from different tables or passages of the source.
# Columns and labels:
# [1] = molecular target: human carbonic anhydrase CA IX (Homo sapiens, UniProt Q16790); experiment: hCA inhibition, stopped-flow CO2 hydration method, CA IX; settings: mean from three assays, errors ±5–10%
# Protocol: (§15) In vitro assessment of all targeted pyrazolobenzothiazine scaffolds for human carbonic anhydrase (hCA) inhibition was performed adopting a stopped-flow CO2 hydration method. The enzyme inhibition assays were carried out for four types of human CA isoforms: CA I, CA II, CA IX, and XII. […] Reason for the selection of these CA isoforms was to develop a comparative relationship for inhibition selectivity between CAs (IX, XII) attributed to tumour/cancer and other CAs (I, II). […] Analyses were carried out in-house using recombinant enzymes as described.
# [2] = molecular target: human carbonic anhydrase CA II (Homo sapiens, UniProt P00918); experiment: hCA inhibition, stopped-flow CO2 hydration method, CA II; settings: mean from three assays, errors ±5–10%
# Protocol: as §15
# [3] = molecular target: human carbonic anhydrase CA I (Homo sapiens, UniProt P00915); experiment: hCA inhibition, stopped-flow CO2 hydration method, CA I
# Protocol: as §15
# [4] = molecular target: human carbonic anhydrase CA XII (Homo sapiens, UniProt O43570); experiment: hCA inhibition, stopped-flow CO2 hydration method, CA XII; settings: mean from three assays, errors ±5–10%
# Protocol: as §15
# [5] = system: Candida albicans (ATCC 90027); experiment: Microbroth single-dose antimicrobial assay, C. albicans; format: cell-based; settings: C. albicans ATCC 90027, value (SD); for percent survival at 125 µg/mL: ATCC90027, single dose 125 μg/mL
# Protocol: (§1) Microbroth single dose antimicrobial assays were performed against different pathogens including susceptible Staphylococcus aureus (ATCC 25923), Escherichia coli (ATCC 8739), and Candida albicans (ATCC 90027). Pathogens were treated with 125 μg/mL of tested compounds in duplicate.
# (§2) The antimicrobial evaluation of the targeted compounds was carried out against five different pathogens including Staphylococcus aureus (susceptible, ATCC 25923; methicillin-resistant, ATCC BAA-41; multidrug-resistant, ATCC BAA-44), Escherichia coli ATCC 8739, and Candida albicans ATCC 90027. Reference antibiotics and final concentrations used as positive controls in these experiments were kanamycin (susceptible S. aureus, 50 μg), vancomycin (methicillin and multidrug-resistant S. aureus, 25 μg), ampicillin (E. coli, 50 μg), and amphotericin B (C. albicans, 25 μg). The final concentration of the tested compounds was 125 μg/mL for microbroth single-dose assays. Dimethyl sulfoxide was used at a final concentration of 0.1% as negative control. […] American type culture collection (ATCC, Manassas, VA, USA) has provided all microbial strains used in above experiments.
# (§3) Antimicrobial Single-dose assay for compounds 7(a-n) against
# (§4) S. aureus E. coli C. albicans
# (§5) Figure S43: Graph showing results of antimicrobial single-dose microbroth assays of compounds 7a–n, dose of tested compounds = 125 μg/mL, control antibiotic s used: kanamycin = 50 μg/mL (Staphylococcus aureus ATCC 25923), ampicillin = 50 μg/mL (Escherichia coli ATCC 8739), and amphotericin B = 25 μg/mL (Candida albicans ATCC 90027). Dimethylsulfoxide ( DMSO) was used as the negative control at 1.25% […]
# (§6) Table S1: Results of single-dose antimicrobial and cytotoxic assays for compounds 7a–n; dosage of tested compounds = 125 μg/mL; antibiotic control dosage (kanamycin = 50 μg/mL (Staphylococcus aureus ATCC 25923), ampicillin = 50 μg/mL (Escherichia coli ATCC 8739), and amphotericin B = 25 μg/mL (Candida albicans ATCC 90027).
# (§7) For cytotoxic assays, dosage of tested compounds = 10 μM; dosage of mensacarcin […]
# (§8) Percent survival / % Cell viability
# (§9) Samples S. aureus E.coli (SD) C. albicans (SD) HCT-116 […]
# [6] = system: multidrug-resistant S. aureus (ATCC BAA-44); experiment: Microbroth dilution assay (MIC90), multidrug-resistant S. aureus; format: cell-based, Staphylococcus aureus; settings: for MIC90: Staphylococcus aureus
# Protocol: (§10) Microbroth dilution assays were performed for the determination of MIC (minimum inhibitory concentration, MIC90) values for compounds 7b and 7h against three different strains of Staphylococcus aureus: susceptible (ATCC 25923), methicillin-resistant (ATCC BAA-41), and multidrug-resistant (ATCC BAA-44).
# as §2
# [7] = system: methicillin-resistant S. aureus (ATCC BAA-41); experiment: Microbroth dilution assay (MIC90), methicillin-resistant S. aureus; format: cell-based, Staphylococcus aureus; settings: for MIC90: Staphylococcus aureus, ATCC BAA-41 / MRSA, read-out: MIC90 MRSA
# Protocol: as §10, §2
# [8] = Single-dose MTT cell viability assay; format: cell-based, human; settings: human, HCT-116 cells (ATCC CCL-247), 48 h, 0.1% DMSO control = 100%, value (SD)
# Protocol: (§11) Single-dose MTT assays were performed for compounds 7a–n against the human colon cancer mammalian cell line (HCT-116, ATCC CCL-247) for evaluating their inhibition of mammalian cell metabolism. Solutions of the tested compounds were prepared in DMSO and cancer cells were treated with 10 μM doses of compounds using the apoptosis inducing standard mensacarcin (10 μM) as a positive control.
# (§12) Single-dose MTT assays were performed for compounds 7a–n with the human colon cancer mammalian cell line (HCT-116, ATCC CCL-247) for evaluating the compounds’ inhibitory effects on cell viability. Stock solutions of compounds were prepared in DMSO and cancer cells were treated with 10 μM doses of each compound and mensacarcin (10 μM) as a positive control. MTT in 1X PBS was added for a final concentration of 0.5 mg/mL 48 hours post compound addition to each well. Post incubation at 37 °C was carried out for 2 h. After the removal of the growth media, purple formazan metabolic product was dissolved in DMSO. A Biotek Synergy reader (96-well plate) was used to take absorbance of all samples at 550 nm. Cell viability was calculated as the ability of the metabolically active cells to reduce tetrazolium salt MTT [3-(4,5-dimethylthiazolyl-2)-2,5-diphenyltetrazolium bromide]. Control metabolic activity shown by cells treated with 0.1% DMSO was set to 100% cell growth. […]
# as §7, §8, §9
# (§13) HCT-116 (Human Colorn cancer cell line) Single -dose assay for […]
# (§14) Figure S44: Graph showing cell viability of compounds 7a–n against human colon carcinoma cell line (HCT-116, ATCC CCL-247), dose of tested compounds = 10 μM, dose of positive control (mensacarcin) = 10 μM.
# [9] = system: human colon cancer cell line HCT-116 (ATCC CCL-247); experiment: Single-dose MTT cell viability assay; format: cell-based; settings: 10 μM
# Protocol: as §11, §12, §7, §8, §9, §13, §14
# [10] = system: Escherichia coli (ATCC 8739); experiment: Microbroth single-dose antimicrobial assay, E. coli; format: cell-based; settings: E. coli ATCC 8739, value (SD); for percent survival at 125 µg/mL: ATCC8739, single dose 125 μg/mL
# Protocol: as §1, §2, §3, §4, §5, §6, §7, §8, §9
# [11] = system: Staphylococcus aureus (ATCC 25923); experiment: Microbroth single-dose antimicrobial assay, susceptible S. aureus; format: cell-based; settings: single dose 125 μg/mL; for percent survival of S. aureus at 125 µg/mL: Staphylococcus aureus, ATCC25923, S. aureus ATCC 25923, value (SD); for antibacterial activity against susceptible S. aureus (in words): duplicate
# Protocol: as §1, §2, §3, §4, §5, §6, §7, §8, §9
# [12] = system: susceptible S. aureus (ATCC 25923); experiment: Microbroth dilution assay (MIC90), susceptible S. aureus; format: cell-based, Staphylococcus aureus; settings: for MIC90 SA: 90% growth inhibition; for MIC90: Staphylococcus aureus, ATCC25923, 90% growth inhibition
# Protocol: as §10, §2
# [13] = read-out: Ki for targeted CAs, IX
# [14] = read-out: Ki for targeted CAs, II
# [15] = read-out: Ki for targeted CAs, I, mean from three assays, errors ±5–10%
# [16] = read-out: Ki for targeted CAs, XII
# [17] = ATCCBAA44, multidrug-resistant S. aureus ATCC BAA-44, 90% growth inhibition, read-out: MIC90 MDRSA
# [18] = methicillin-resistant S. aureus ATCC BAA-41, 90% growth inhibition
# Sequence of human carbonic anhydrase CA I (P00915 whole entry): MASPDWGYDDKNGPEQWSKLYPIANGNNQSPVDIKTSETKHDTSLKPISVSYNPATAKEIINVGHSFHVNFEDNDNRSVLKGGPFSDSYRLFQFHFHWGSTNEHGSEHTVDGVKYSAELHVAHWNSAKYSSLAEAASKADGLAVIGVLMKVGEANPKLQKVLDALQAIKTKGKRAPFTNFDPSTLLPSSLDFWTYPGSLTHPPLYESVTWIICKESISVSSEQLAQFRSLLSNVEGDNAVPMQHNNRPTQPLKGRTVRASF
# Sequence of human carbonic anhydrase CA XII (O43570 25-354): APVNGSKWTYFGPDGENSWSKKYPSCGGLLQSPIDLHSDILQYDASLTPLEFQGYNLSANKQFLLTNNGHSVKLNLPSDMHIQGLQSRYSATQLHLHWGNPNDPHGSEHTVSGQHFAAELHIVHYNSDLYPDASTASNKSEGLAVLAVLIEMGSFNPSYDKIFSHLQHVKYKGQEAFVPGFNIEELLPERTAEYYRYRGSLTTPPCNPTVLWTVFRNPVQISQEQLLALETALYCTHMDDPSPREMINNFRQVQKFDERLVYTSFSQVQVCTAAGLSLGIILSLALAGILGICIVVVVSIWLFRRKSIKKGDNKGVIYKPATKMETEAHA
smiles,measurement,setting,value
CN1c2c(O)nn(CC(=O)NCc3ccccc3)c2-c2ccccc2S1(=O)=O [Compound 7f],Ki,[1]; [13],> 100 µM
same,Ki,[2]; [14],90.3 µM
same,Ki,[3]; [15],> 100 µM
same,Ki,[4]; [16],79.1 µM
"C[C@@H]1[C@H](O)[C@@H](C)/C=C/C=C/C=C/C=C/C=C/C=C/C=C/[C@H](O[C@@H]2O[C@H](C)[C@@H](O)[C@H](N)[C@@H]2O)C[C@@H]2O[C@](O)(C[C@@H](O)C[C@@H](O)[C@H](O)CC[C@@H](O)C[C@@H](O)CC(=O)O[C@H]1C)C[C@H](O)[C@H]2C(=O)O [Amphotericin B, amphotericin B, reference compound]",percent survival at 25 µg/mL,"[5]; ATCC90027, antibiotic control 25 μg/mL",4.71%
CN1c2c(O)nn(CC(=O)Nc3ccc(Br)cc3)c2-c2ccccc2S1(=O)=O [Compound 7h],Ki,"[1]; Ki for targeted CAs, IX",90.8 µM
same,MIC90,[6]; [17],8 mg/L
same,MIC90 MDRSA,"[6]; multidrug-resistant S. aureus ATCC BAA-44, 90% growth inhibition",8 mg/L
same,MIC90,[7]; [18],8 mg/L
same,MIC90 MRSA,[7]; [18],8 mg/L
same,"viability at 48 h, 10 µM",[8],> 100%
same,effect on HCT-116 cell viability (in words),[9],no significant decrease in mammalian cell viability
same,percent survival at 125 µg/mL,[10],> 100%
same,Ki,"[2]; Ki for targeted CAs, II",95.2 µM
same,percent survival at 125 µg/mL,[5],65.1%
same,Ki,[3],> 100 µM
same,percent survival of S. aureus at 125 µg/mL,[11],16.7%
same,antibacterial activity against susceptible S. aureus (in words),[11],significant antibacterial activity
same,Ki,"[4]; Ki for targeted CAs, XII",91.7 µM
same,MIC90 SA,[12],8 mg/L
same,MIC90,[12],8 mg/L
Cc1ccc(NC(=O)COc2nn(CC(=O)Nc3ccc(C)cc3)c3c2N(C)S(=O)(=O)c2ccccc2-3)cc1 [Compound 7m],Ki,[1]; [13],> 100 µM
same,Ki,[2]; [14],> 100 µM
same,Ki,[3]; [15],> 100 µM
same,Ki,[4]; [16],> 100 µM
"NC[C@H]1O[C@H](O[C@H]2[C@H](O)[C@@H](O[C@H]3O[C@H](CO)[C@@H](O)[C@H](N)[C@H]3O)[C@H](N)C[C@@H]2N)[C@H](O)[C@@H](O)[C@@H]1O [Kanamycin, kanamycin, reference compound]",MIC90 SA,[12],<1 mg/L
"CN[C@H](CC(C)C)C(=O)N[C@H]1C(=O)N[C@@H](CC(N)=O)C(=O)N[C@H]2C(=O)N[C@H]3C(=O)N[C@H](C(=O)N[C@H](C(=O)O)c4cc(O)cc(O)c4-c4cc3ccc4O)[C@H](O)c3ccc(c(Cl)c3)Oc3cc2cc(c3O[C@@H]2O[C@H](CO)[C@@H](O)[C@H](O)[C@H]2O[C@H]2C[C@](C)(N)[C@H](O)[C@H](C)O2)Oc2ccc(cc2Cl)[C@H]1O [vancomycin, reference compound]",MIC90,"[6]; ATCCBAA44, read-out: MIC90 MDRSA",< 1 mg/L
same,MIC90,[7],< 1 mg/L
CN1c2c(O)nn(CC(=O)Nc3ccc(Cl)cc3)c2-c2ccccc2S1(=O)=O [Compound 7a],Ki,[1]; [13],> 100 µM
same,Ki,[2]; [14],84.6 µM
same,Ki,[3]; [15],> 100 µM
same,Ki,[4]; [16],90.2 µM
Cc1ccccc1NC(=O)COc1nn(CC(=O)Nc2ccccc2C)c2c1N(C)S(=O)(=O)c1ccccc1-2 [Compound 7l],Ki,[1]; [13],> 100 µM
same,effect on HCT-116 cell viability (in words),[9],inhibited cell viability
same,Ki,[2]; [14],> 100 µM
same,Ki,[3]; [15],> 100 µM
same,Ki,[4]; [16],> 100 µM
CN1c2c(O)nn(CC(=O)Nc3cccc(Cl)c3)c2-c2ccccc2S1(=O)=O [Compound 7b],Ki,"[1]; Ki for targeted CAs, IX",72.9 µM
same,MIC90,[6]; [17],16 mg/L
same,MIC90,[7]; [18],16 mg/L
same,"viability at 48 h, 10 µM",[8],88.9%
same,effect on HCT-116 cell viability (in words),[9],no significant decrease in mammalian cell viability
same,percent survival at 125 µg/mL,[10],95.3%
same,Ki,"[2]; Ki for targeted CAs, II",90.9 µM
same,percent survival at 125 µg/mL,[5],87%
same,Ki,[3],> 100 µM
same,percent survival of S. aureus at 125 µg/mL,[11],37.2%
same,antibacterial activity against susceptible S. aureus (in words),[11],significant antibacterial activity
same,Ki,"[4]; Ki for targeted CAs, XII",77.4 µM
same,MIC90,[12],16 mg/L
"CC1(C)S[C@@H]2[C@H](NC(=O)[C@H](N)c3ccccc3)C(=O)N2[C@H]1C(=O)O [Ampicillin, ampicillin, reference compound]",percent survival at 50 µg/mL,"[10]; ATCC8739, antibiotic control 50 μg/mL",4.16%
Cc1cccc(NC(=O)COc2nn(CC(=O)Nc3cccc(C)c3C)c3c2N(C)S(=O)(=O)c2ccccc2-3)c1C [Compound 7k],Ki,"[1]; Ki for targeted CAs, IX",> 100 µM
same,"viability at 48 h, 10 µM",[8],90.7%
same,percent survival at 125 µg/mL,[10],94.2%
same,Ki,"[2]; Ki for targeted CAs, II",> 100 µM
same,percent survival at 125 µg/mL,[5],> 100%
same,Ki,[3],> 100 µM
same,percent survival of S. aureus at 125 µg/mL,[11],> 100%
same,Ki,"[4]; Ki for targeted CAs, XII",> 100 µM
CN1c2c(OCC(=O)Nc3ccc([N+](=O)[O-])cc3)nn(CC(=O)Nc3ccc([N+](=O)[O-])cc3)c2-c2ccccc2S1(=O)=O [Compound 7i],Ki,[1]; [13],> 100 µM
same,Ki,[2]; [14],> 100 µM
same,Ki,[3]; [15],> 100 µM
same,Ki,[4]; [16],> 100 µM
COc1ccc(NC(=O)COc2nn(CC(=O)Nc3ccc(OC)cc3)c3c2N(C)S(=O)(=O)c2ccccc2-3)cc1 [Compound 7j],Ki,"[1]; Ki for targeted CAs, IX",> 100 µM
same,"viability at 48 h, 10 µM",[8],> 100%
same,percent survival at 125 µg/mL,[10],> 100%
same,Ki,"[2]; Ki for targeted CAs, II",> 100 µM
same,percent survival at 125 µg/mL,[5],99.5%
same,Ki,[3],> 100 µM
same,percent survival of S. aureus at 125 µg/mL,[11],> 100%
same,Ki,"[4]; Ki for targeted CAs, XII",> 100 µM
CN1c2c(OCC(=O)NC3CCCCC3)nn(CC(=O)NC3CCCCC3)c2-c2ccccc2S1(=O)=O [Compound 7n],Ki,[1]; [13],> 100 µM
same,Ki,[2]; [14],> 100 µM
same,Ki,[3]; [15],> 100 µM
same,Ki,[4]; [16],> 100 µM
